In patent publication US20090068290A1, “BIFEPRUNOX DOSES FOR TREATING SCHIZOPHRENIA” (priority 2006, published 2009):

Columns and labels:
[1] = tested on: adult subjects with schizophrenia; experiment: CGI Improvement score, Clinical Study Two; type: in vivo, human; settings: 40 mg, LOCF
Method: Rating scale assessments were performed weekly, except for week 5, to measure the change from baseline to endpoint of the PANSS total score. Other assessments included: PANSS positive symptom subscale score, PANSS negative symptom subscale score, PANSS general pschopathology subscale score, BPRS total score, BPRS psychosis score, the CGI-S score, the CGI-I score, responder rates based on the PANSS total score, and the Calgary Depression Scale for Schizophrenia (CDSS). […]
Subjects who completed this study had the option to continue in the long-term. […] Risperidone-treated subjects were titrated from 2 mg to 6 mg daily over a three-day period and were subsequently maintained at 6 mg/day for the remainder of the treatment period. […] Blood samples were also obtained at Screening/Baseline, Week 3, and Week 6 for clinical laboratory assessments.

[2] = tested on: adult subjects with schizophrenia; experiment: CGI Severity of Illness score, Clinical Study Three; type: in vivo, human; settings: for CGI Severity of Illness Score, Trt Effect / Change from Baseline in CGI Severity of Illness Score, Mean (SD) / Change from Baseline in CGI Severity of Illness Score, Median / mean change (SD) from Baseline to Endpoint in CGI severity of illness score: LOCF; for CGI severity of illness score, treatment effect (bifeprunox—placebo): Endpoint LOCF; for mean change (SD) from Baseline to Endpoint in CGI severity of illness score: ITT
Excerpt: SECONDARY OBJECTIVES To assess the efficacy of bifeprunox in treating schizophrenia using the Positive Symptom sub-scale score of the PANSS, the Negative Symptom sub-scale score of the PANSS, the General Psychopathology sub-scale of the PANSS, Brief Psychiatric Rating Scale (BPRS) total score derived from the PANSS, BPRS psychosis score derived from the PANSS, the Clinical Global Impression Severity of Illness score (CGI-S), the Clinical Global Impression Improvement score (CGI-I), CGI-I responder rate, PANSS responder rate based on the PANSS total score, Calgary Depression Scale for Schizophrenia (CDSS), and Subject Satisfaction rating.
There were four treatment arms in this study, approximately 144 subjects per arm. […] After completing the Single-Blind Placebo Lead-in Period of at least three days, bifeprunox-treated subjects were titrated from 0.25 mg up to 20 mg/day or 30 mg/day according to a standardized titration scheme over a seven- or eight-day period, respectively. When the assigned dose was reached, subjects were maintained at that dose for the remainder of the six week treatment period. […] Subjects were hospitalized (if not already inpatients) after eligibility for study entry was verified, starting from the Screening Visit until at least 10 days after Baseline. Subjects could be hospitalized longer than 10 days if considered medically necessary by the Investigator. Rating scale assessments for efficacy and abnormal movement disorders were done weekly except for Week 5. […] Subject satisfaction with study medication was assessed at Week 6.

[3] = Pooled metabolic analysis, 6-week studies: body weight; settings: for ≧7% weight decrease, (%) / ≧7% weight increase, (%) / Weight, Mean (SD) change from baseline: 6-week placebo controlled trials, BX total doses, RISP 6 mg, OLZ 15 mg, HAL 10 mg; for Weight, Mean (SD) change from baseline: endpoint
Excerpt: OBJECTIVE: To examine the metabolic effects of bifeprunox in patients with acute and stable schizophrenia.
METHODS: Metabolic data was compiled from one 6-month and four 6-week studies (i.e., a treatment period) of bifeprunox in patients with stable and acute schizophrenia, respectively. In the 6-month study, patients received bifeprunox (n=331) or placebo (PBO) (n=166). […] Metabolic evaluations included body weight, body mass index (BMI), plasma glucose and lipid profiles. Fasting glucose and lipid values were assessed in one 6-week study and in the 6-month study. Triglyceride:HDL ratio (TG:HDL) was calculated as a marker of insulin resistance. No statistical analyses were performed; only descriptive statistics are presented.

For `O=c1[nH]c2cccc(N3CCN(Cc4cccc(-c5ccccc5)c4)CC3)c2o1` [Bifeprunox, 7-[4-([1,1′-biphenyl]-3-ylmethyl)-1-piperazinyl]-2(3H)-benzoxazolone], the “CGI Improvement Much Improved, %” value ([1]; Week 2) was “(19%)”, the “CGI Improvement Much Worse, %” value ([1]; Week 2) was “(11%)” and the “CGI Improvement No Change, %” value ([1]; Week 2) was “(22%)”. The “CGI Improvement Very Much Improved, %” value ([1]; Week 2) was “(4%.)”, the “CGI Improvement Minimally Improved, %” value ([1]; Week 3) was “(30%)” and the “CGI Improvement Minimally Worse, %” value ([1]; Week 3) was “(6%)”. The “CGI Improvement Much Improved, %” value ([1]; Week 3) was “(21%)”, the “CGI Improvement Much Worse, %” value ([1]; Week 3) was “(14%)” and the “CGI Improvement No Change, %” value ([1]; Week 3) was “(23%)”. For the same compound, the “CGI Improvement Very Much Improved, %” value ([1]; Week 3) was “(5%)”, the “CGI Improvement Minimally Improved, %” value ([1]; Week 4) was “(29%)” and the “CGI Improvement Minimally Worse, %” value ([1]; Week 4) was “(9%)”. For the same compound, the “CGI Improvement Much Improved, %” value ([1]; Week 4) was “(20%)”, the “CGI Improvement Much Worse, %” value ([1]; Week 4) was “(14%)” and the “CGI Improvement No Change, %” value ([1]; Week 4) was “(21%)”. The “CGI Improvement Very Much Improved, %” value ([1]; Week 4) was “(7%)”, the “CGI Improvement Minimally Improved, %” value ([1]; Week 6/Endpoint) was “(26%)” and the “CGI Improvement Minimally Worse, %” value ([1]; Week 6/Endpoint) was “(11%)”. For the same compound, the “CGI Improvement Much Improved, %” value ([1]; Week 6/Endpoint) was “(19%)”, the “CGI Improvement Much Worse, %” value ([1]; Week 6/Endpoint) was “(15%)” and the “CGI Improvement No Change, %” value ([1]; Week 6/Endpoint) was “(20%)”. The “CGI Improvement Very Much Improved, %” value ([1]; Week 6/Endpoint) was “(9%)”, the “CGI Severity of Illness Score, Trt Effect” value ([2]; 20 mg versus placebo, Week 6/Endpoint) was −0.13 and the “Change from Baseline in CGI Severity of Illness Score, Mean (SD)” value (shortened to “Change from Baseline in CGI Severity … (SD)”) ([2]; 20 mg, Week 1) was −0.23 (0.63). The “Change from Baseline in CGI Severity of Illness Score, Median” value (“Change from Baseline … Median” for short) ([2]; 20 mg, Week 1) was 0.0, the “Change from Baseline in CGI Severity … (SD)” value ([2]; 20 mg, Week 2) was −0.48 (0.81) and the “Change from Baseline … Median” value ([2]; 20 mg, Week 2) was 0.0. The “Change from Baseline in CGI Severity … (SD)” value ([2]; 20 mg, Week 3) was −0.59 (0.89), the “Change from Baseline … Median” value ([2]; 20 mg, Week 3) was −1.0 and the “Change from Baseline in CGI Severity … (SD)” value ([2]; 20 mg, Week 4) was −0.65 (0.95). For the same compound, the “Change from Baseline … Median” value ([2]; 20 mg, Week 4) was −1.0, the “Change from Baseline in CGI Severity … (SD)” value ([2]; 20 mg, Week 6/Endpoint) was −0.63 (0.98) and the “Change from Baseline … Median” value ([2]; 20 mg, Week 6/Endpoint) was −1.0. For the same compound, the “CGI Severity of Illness Score, Trt Effect” value ([2]; 30 mg versus placebo, Week 6/Endpoint) was −0.09, the “Change from Baseline in CGI Severity … (SD)” value ([2]; 30 mg, Week 1) was −0.26 (0.60) and the “Change from Baseline … Median” value ([2]; 30 mg, Week 1) was 0.0. For the same compound, the “Change from Baseline in CGI Severity … (SD)” value ([2]; 30 mg, Week 2) was −0.41 (0.76), the “Change from Baseline … Median” value ([2]; 30 mg, Week 2) was 0.0 and the “Change from Baseline in CGI Severity … (SD)” value ([2]; 30 mg, Week 3) was −0.50 (0.90). The “Change from Baseline … Median” value ([2]; 30 mg, Week 3) was 0.0, the “Change from Baseline in CGI Severity … (SD)” value ([2]; 30 mg, Week 4) was −0.57 (0.89) and the “Change from Baseline … Median” value ([2]; 30 mg, Week 4) was −1.0. The “Change from Baseline in CGI Severity … (SD)” value ([2]; 30 mg, Week 6/Endpoint) was −0.62 (1.03), the “Change from Baseline … Median” value ([2]; 30 mg, Week 6/Endpoint) was −1.0 and the “CGI severity of illness score, treatment effect (bifeprunox—placebo)” value ([2]; bifeprunox 20 mg) was −0.13. For the same compound, the “mean change (SD) from Baseline to Endpoint in CGI severity of illness score” value ([2]; bifeprunox 20 mg) was −0.63 (0.98), the “CGI severity of illness score, treatment effect (bifeprunox—placebo)” value ([2]; bifeprunox 30 mg) was −0.09 and the “mean change (SD) from Baseline to Endpoint in CGI severity of illness score” value ([2]; bifeprunox 30 mg) was −0.62 (1.03). The “≧7% weight decrease, (%)” value ([3]; baseline BMI 18.5-25 kg/m^2) was 5.4%, the “≧7% weight increase, (%)” value ([3]; baseline BMI 18.5-25 kg/m^2) was 2.4% and the “≧7% weight decrease, (%)” value ([3]; baseline BMI <18.5 kg/m^2) was 3.7%. The “≧7% weight increase, (%)” value ([3]; baseline BMI <18.5 kg/m^2) was 3.7%, the “≧7% weight decrease, (%)” value ([3]; baseline BMI >25-30 kg/m^2) was 8.8% and the “≧7% weight increase, (%)” value ([3]; baseline BMI >25-30 kg/m^2) was 1.8%. For the same compound, the “≧7% weight decrease, (%)” value ([3]; baseline BMI >30 kg/m^2) was 5.8%, the “≧7% weight increase, (%)” value ([3]; baseline BMI >30 kg/m^2) was 1.4% and the “≧7% weight decrease, (%)” value ([3]; baseline BMI All) was 6.2%. The “≧7% weight increase, (%)” value ([3]; baseline BMI All) was 2.1%, the “Weight, Mean (SD) change from baseline” value ([3]; baseline BMI 18.5-25 kg/m^2) was −0.4 (2.6) kg and the “Weight, Mean (SD) change from baseline” value ([3]; baseline BMI <18.5 kg/m^2) was 0.0 (1.7) kg. The “Weight, Mean (SD) change from baseline” value ([3]; baseline BMI >25-30 kg/m^2) was −0.9 (3.2) kg, the “Weight, Mean (SD) change from baseline” value ([3]; baseline BMI >30 kg/m^2) was −1.4 (3.9) kg and the “Weight, Mean (SD) change from baseline” value ([3]; baseline BMI All) was −0. (3.2) kg. For the same compound, the mean weight decrease ([3]; 6-week studies, pooled) was 0.8 kg, the mean weight change ([3]; 6-week studies, pooled (overall summary)) was -0.8 kg and the “mean change in weight at endpoint” value ([3]; 6-week studies, patients with nausea or vomiting) was -1.7 kg. The “mean change in weight at endpoint” value ([3]; 6-week studies, patients without nausea or vomiting) was -0.4 kg.
